From ChEMBL document CHEMBL1201862, “PubChem BioAssay data set” (2004)
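Where inhibition never reached the appropriate level, the endpoint shown equals the highest concentration tested. Otherwise, values were interpolated linearly from a five-concentration, 48-hour dose response in 96-well plates. GI50 is the concentration that inhibits growth by half.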 The source made the active and inactive calls. Rule as the data show it: active = GI50 up to about 1.1 µM and inactive = higher.

Key:
Assay in all cases: NCI-60 cell line screen, 48 h
[1] = system: SK-OV-3
[2] = system: SF-268
[3] = system: Malme-3M
[4] = system: NCI-H522
[5] = system: K562
[6] = system: LOX IMVI
[7] = system: CCRF-CEM
[8] = system: HT-29
[9] = system: SK-MEL-2
[10] = system: MDA-MB-231
[11] = system: MDA-MB-435
[12] = system: A549
[13] = system: MOLT-4
[14] = system: U-251
[15] = system: KM12
[16] = system: SF-539
[17] = system: A498
[18] = system: MCF7
[19] = system: SK-MEL-5
[20] = system: RPMI-8226

Row | SMILES | GI50 [1] | GI50 [2] | GI50 [3] | GI50 [4] | GI50 [5] | GI50 [6] | GI50 [7] | GI50 [8] | GI50 [9] | GI50 [10] | GI50 [11] | GI50 [12] | GI50 [13] | GI50 [14] | GI50 [15] | GI50 [16] | GI50 [17] | GI50 [18] | GI50 [19] | GI50 [20]
1 | O=c1[nH]c(=O)n(COCCOCc2ccccc2)cc1Nc1ccccc1 | > 100 µM (inactive) | > 100 µM (inactive) | > 100 µM (inactive) | > 100 µM (inactive) | > 100 µM (inactive) | > 100 µM (inactive) | > 100 µM (inactive) | > 100 µM (inactive) | > 100 µM (inactive) | > 100 µM (inactive) | > 100 µM (inactive) | > 100 µM (inactive) | 59.4 µM (inactive) | > 100 µM (inactive) | > 100 µM (inactive) | > 100 µM (inactive) | > 100 µM (inactive) | > 100 µM (inactive) |  | 
2 | Cc1cn(C2CC(OC(c3ccccc3)(c3ccccc3)c3ccccc3)C(COC(c3ccccc3)(c3ccccc3)c3ccccc3)O2)c(=O)[nH]c1=O (centres undefined) | > 100 µM (inactive) | 99.8 µM (inactive) | 68.7 µM (inactive) |  | 38.6 µM (inactive) | 60 µM (inactive) | > 100 µM (inactive) | 61 µM (inactive) | 23.7 µM (inactive) | 37.7 µM (inactive) | 26.2 µM (inactive) | 34.3 µM (inactive) | 29.4 µM (inactive) |  | 31.3 µM (inactive) | > 100 µM (inactive) | 25.4 µM (inactive) | 19 µM (inactive) | 43.3 µM (inactive) | 
3 | OCC1CCC(n2cnc3c(O)ncnc32)O1 (centres undefined) | > 100 µM (inactive) |  | > 100 µM (inactive) | > 100 µM (inactive) | > 100 µM (inactive) | > 100 µM (inactive) | > 100 µM (inactive) | > 100 µM (inactive) | > 100 µM (inactive) | > 1000 µM (inactive) | > 1000 µM (inactive) | > 100 µM (inactive) | > 100 µM (inactive) |  | > 100 µM (inactive) |  | > 92 µM (inactive) | > 100 µM (inactive) | > 100 µM (inactive) | > 100 µM (inactive)
4 | Cc1nc2ccc(NC3OCC(O)C(O)C3O)cc2c(=O)n1-c1ccccc1 (centres undefined) |  | > 100 µM (inactive) | > 100 µM (inactive) | > 100 µM (inactive) | > 100 µM (inactive) | > 100 µM (inactive) |  | > 100 µM (inactive) | > 100 µM (inactive) | > 100 µM (inactive) | > 100 µM (inactive) |  | > 100 µM (inactive) | > 100 µM (inactive) | > 100 µM (inactive) |  | > 100 µM (inactive) | > 100 µM (inactive) | > 100 µM (inactive) | > 100 µM (inactive)
5 | N#CC(Cc1ccccc1)N(CCC1=CCCCC1)C(c1ccccc1)c1ccccc1 (centres undefined) | > 100 µM (inactive) | > 100 µM (inactive) | > 100 µM (inactive) | 15.2 µM (inactive) | 80.4 µM (inactive) |  | 0.456 µM (active) | 12.8 µM (inactive) | > 100 µM (inactive) | > 100 µM (inactive) | 41.1 µM (inactive) | 70.3 µM (inactive) | 66.8 µM (inactive) | 69.5 µM (inactive) | > 100 µM (inactive) |  | > 100 µM (inactive) | 42.4 µM (inactive) | 28 µM (inactive) | 33.3 µM (inactive)
6 | COC(=O)c1c(C#C[Si](C)(C)C)c(C#C[Si](C)(C)C)c(C#C[Si](C)(C)C)c(C#C[Si](C)(C)C)c1C(=O)OC | > 100 µM (inactive) | > 100 µM (inactive) | > 100 µM (inactive) | > 100 µM (inactive) | > 100 µM (inactive) |  | > 100 µM (inactive) | > 100 µM (inactive) | > 100 µM (inactive) | > 100 µM (inactive) | > 100 µM (inactive) | > 100 µM (inactive) | > 100 µM (inactive) | > 100 µM (inactive) | > 100 µM (inactive) | > 100 µM (inactive) | > 100 µM (inactive) | > 100 µM (inactive) | > 100 µM (inactive) | > 100 µM (inactive)
7 | CC1(C)OCC([C@H]2O[C@@H](CC(=S)NCCCCCCCCCCCCNC(=S)C[C@H]3O[C@@H](C4COC(C)(C)O4)[C@H]4OC(C)(C)O[C@H]43)[C@H]3OC(C)(C)O[C@H]32)O1 (some centres undefined) |  | > 100 µM (inactive) |  | 45.3 µM (inactive) | 39.4 µM (inactive) | 79.1 µM (inactive) |  | 45.7 µM (inactive) | 58.5 µM (inactive) | > 100 µM (inactive) | 70.8 µM (inactive) | 14.7 µM (inactive) | 15.8 µM (inactive) | 35 µM (inactive) | 48.6 µM (inactive) | 57.9 µM (inactive) | 11.9 µM (inactive) | 24.4 µM (inactive) | 23.7 µM (inactive) | 15.7 µM (inactive)
8 | N#Cc1c(O)cc(=O)n2c1[nH]c1ccccc12 | > 100 µM (inactive) | > 100 µM (inactive) | > 100 µM (inactive) | > 100 µM (inactive) | > 100 µM (inactive) |  | > 100 µM (inactive) | > 100 µM (inactive) | > 100 µM (inactive) | > 100 µM (inactive) | > 100 µM (inactive) | > 100 µM (inactive) | > 100 µM (inactive) | > 100 µM (inactive) | > 100 µM (inactive) | > 100 µM (inactive) | > 100 µM (inactive) | > 100 µM (inactive) | > 100 µM (inactive) | > 100 µM (inactive)
9 | Cn1ccnc1SC(F)(F)c1nc2ccccc2o1 | > 100 µM (inactive) | > 100 µM (inactive) | > 100 µM (inactive) | > 100 µM (inactive) | > 100 µM (inactive) |  | > 100 µM (inactive) | > 100 µM (inactive) | > 100 µM (inactive) | > 100 µM (inactive) | > 100 µM (inactive) | > 100 µM (inactive) | > 100 µM (inactive) | > 100 µM (inactive) | > 100 µM (inactive) | > 100 µM (inactive) | > 100 µM (inactive) | > 100 µM (inactive) | > 100 µM (inactive) | > 100 µM (inactive)
10 | Nc1ccc(/N=N/c2ccccc2)cc1 | > 100 µM (inactive) |  | 75.9 µM (inactive) |  | 35.8 µM (inactive) | 26.7 µM (inactive) | 6.41 µM (inactive) | 28.6 µM (inactive) | 22.6 µM (inactive) | 32.7 µM (inactive) | 56.1 µM (inactive) | 32.6 µM (inactive) | 11.7 µM (inactive) | 46.5 µM (inactive) | 23.8 µM (inactive) | 35.2 µM (inactive) | 46.8 µM (inactive) | 30.5 µM (inactive) | 53.5 µM (inactive) | 
11 | O=C(O)CCC(=O)OC1N=C(c2ccccc2Cl)c2cc([N+](=O)[O-])ccc2NC1=O (centres undefined) | > 100 µM (inactive) | 67.5 µM (inactive) | > 100 µM (inactive) | 55.1 µM (inactive) |  | 85.7 µM (inactive) | 26.3 µM (inactive) | > 100 µM (inactive) | > 100 µM (inactive) | > 100 µM (inactive) | > 100 µM (inactive) | > 100 µM (inactive) |  | 31.5 µM (inactive) | 40.7 µM (inactive) |  | > 100 µM (inactive) | 33 µM (inactive) |  | 
12 | COc1ccc2[nH]c3c(C)c4ccnc(NCCCN(C)CCCNc5ccc6nnn7c8ccccc8c(=O)c5c67)c4c(C)c3c2c1 | 2.64 µM (inactive) | 0.679 µM (active) |  | 0.107 µM (active) | 0.226 µM (active) | 0.228 µM (active) | 0.0047 µM (active) | 0.0266 µM (active) | > 10 µM (inactive) | 0.181 µM (active) | 0.362 µM (active) | 0.0395 µM (active) | 0.00104 µM (active) | 0.223 µM (active) | 0.432 µM (active) | 0.237 µM (active) | 1.35 µM (inactive) | 0.0561 µM (active) |  | 0.0474 µM (active)
13 | CCCNC1=NC(C)=CSC(Nc2ccccc2)=C1C#N | > 100 µM (inactive) | > 100 µM (inactive) | > 100 µM (inactive) | > 100 µM (inactive) | > 100 µM (inactive) |  |  |  | > 100 µM (inactive) | > 100 µM (inactive) | > 100 µM (inactive) | > 100 µM (inactive) | > 100 µM (inactive) | > 100 µM (inactive) | > 100 µM (inactive) | > 100 µM (inactive) | > 100 µM (inactive) | > 100 µM (inactive) | > 100 µM (inactive) | > 100 µM (inactive)
14 | Cc1nc(N)c(N2CCN(Cc3ccccc3)CC2)c(O)n1 |  | > 100 µM (inactive) | > 100 µM (inactive) | > 100 µM (inactive) | > 100 µM (inactive) | > 100 µM (inactive) | > 100 µM (inactive) | > 100 µM (inactive) | > 100 µM (inactive) | > 100 µM (inactive) | > 100 µM (inactive) | > 100 µM (inactive) | > 100 µM (inactive) | > 100 µM (inactive) | > 100 µM (inactive) | > 100 µM (inactive) | > 100 µM (inactive) | > 100 µM (inactive) |  | > 100 µM (inactive)
15 | CC1(C)CCCCCC(C)(CCCO)C1=O (centres undefined) | > 100 µM (inactive) | > 100 µM (inactive) | > 100 µM (inactive) | > 100 µM (inactive) | > 100 µM (inactive) | > 100 µM (inactive) | > 100 µM (inactive) | > 100 µM (inactive) | > 100 µM (inactive) | > 100 µM (inactive) | > 100 µM (inactive) | > 100 µM (inactive) | > 100 µM (inactive) | > 100 µM (inactive) | > 100 µM (inactive) |  | > 100 µM (inactive) | > 100 µM (inactive) | > 100 µM (inactive) | > 100 µM (inactive)
